Our source for the Activity, IC50 and Ratio IC50 values is ChEMBL document CHEMBL4622839, “Induction of enantio-selective apoptosis in human leukemia HL-60 cells by (S)-erypoegin K, an isoflavone isolated from Erythrina poeppigiana” (Bioorg Med Chem, 2020).

The structures appear in SMILES notation. Active and inactive are the calls of the source. No cut-off for these calls is given here.

Test [1] concerns HL-60. Description: Antiproliferative activity against human HL60 cells assessed as inhibition of cell viability incubated for 48 hrs by MTS assay. The following applies: for IC50: HL-60, 48 h. Type of test: functional, cell-based. In general terms: Tetrazolium assays rely on reduction of a dye to a coloured formazan, in cell work by metabolically active cells.
Test [2] relates to HL-60. Kind of test: Induction of apoptosis in human HL60 cells assessed as increase in MG level accumulation at 1 to 3 uM incubated for 8 to 24 hrs by HLPC analysis. Type of test: functional, cell-based.
In a further test the target is Lactoylglutathione lyase (Homo sapiens, UniProt Q04760). Description: Inhibition of recombinant human Glyoxalase-1 expressed in Escherichia coli BL21 (DE3) assessed as inhibition of S-D-lactoylglutathione formation using MG and reduced glutathione as substrate measured for 2 mins by spectrophotometric method.
For test [3], the system named is HL-60. Kind of test: Induction of apoptosis in human HL60 cells assessed as caspase 9 activation at 0.1 to 0.5 uM incubated up to 24 hrs by flurometric analysis. Type of test: functional, cell-based.
The test system of test [4] is HL-60. Kind of test: Induction of apoptosis in human HL60 cells assessed as caspase 3 activation at 0.1 to 0.5 uM incubated up to 24 hrs by flurometric analysis. Type of test: functional, cell-based.
For test [5], the system named is HL-60. Kind of test: Induction of apoptosis in human HL60 cells assessed as DNA ladder formation at 1 to 3 uM incubated for 5 hrs by agarose gel electrophoresis method. The format is functional, cell-based.
The test system of test [6] is HL-60. Kind of test: Antiproliferative activity against human HL60 cells assessed as inhibition of cell viability up to 50 uM incubated for 48 hrs by MTS assay. Type of test: functional, cell-based.
Test [7] has as its system HL-60. Kind of test: Induction of apoptosis in human HL60 cells assessed as nuclear condensation/fragmentation at 5 uM incubated for 6 hrs by Hoechst 33342 staining-based fluorescence microscopic method. Type of test: functional, cell-based.
For a further test, the species on record is Homo sapiens. Description: Selectivity index, ratio of IC50 for recombinant human Glyoxalase-1 expressed in Escherichia coli BL21 (DE3) to IC50 for antiproliferative activity against human HL60 cells.

Lactoylglutathione lyase, sequence (Q04760 whole entry): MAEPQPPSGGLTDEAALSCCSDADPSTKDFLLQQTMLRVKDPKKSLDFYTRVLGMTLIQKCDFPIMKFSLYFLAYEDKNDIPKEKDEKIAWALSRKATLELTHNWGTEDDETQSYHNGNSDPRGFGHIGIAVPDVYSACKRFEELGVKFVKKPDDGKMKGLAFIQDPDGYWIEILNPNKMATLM

The term IC50 denotes the concentration that gives 50% inhibition. As for `CC(C)(O)[C@H]1Cc2c(cc(O)c3c(=O)c(-c4ccc(O)cc4)coc23)O1`, the outcome with HL-60 [1], with HL-60 [2], in the test on HL-60 [3], with HL-60 [4], in the test on HL-60 [5] and in the test with HL-60 [6] was inactive. Further, the result in the test with HL-60 [7] was inactive. Also, the IC50 at Lactoylglutathione lyase was determined as 100 µM.

In the case of `CC(C)(O)C1Cc2c(cc(O)c3c(=O)c(-c4ccc(O)cc4)coc23)O1` (racemic), the IC50 with HL-60 [1] amounted to 0.175 µM; on Lactoylglutathione lyase, 109 µM. For the same compound, the Ratio IC50 in the test listed under Homo sapiens was determined as 625.

For the compound `CC(C)(O)[C@@H]1Cc2c(cc(O)c3c(=O)c(-c4ccc(O)cc4)coc23)O1`, the IC50 in the test on HL-60 [1] came out at 0.09 µM; on Lactoylglutathione lyase, 100 µM. For the same compound, the result in the test on HL-60 [5] and in the test with HL-60 [7] was Active.
